Data set [1] in a line: GC head space analysis of 1-MCP release from boron complexes mixed with water. Format: physicochemical. Conditions: for amount of 1-MCP released in first 24 hours (releasing curves): FIGS. 4 & 7; for consistency in releasing 1-MCP over time: FIGS. 4-7, compared with complex 2; for release of 1-MCP with time (MCP releasing curve): complex mixed vigorously with H2O in air-tight vial, head space vapor injected in GC. The protocol: Investigation of releasing 1-MCP from the boron complexes of MCP (1, 2, 3,4): Without being bound by theory, due to the moisture sensitivity of the boron complexes, the nucleophilic attack of hydroxide ion (OH—) toward the boron atom triggered the breaking of the B-C bond releasing 1-MCP as a gas.
GC analysis of dicyclohexyl-(2-methylene-cyclopropyl)-borane (1): 140 mg of the complex was mixed vigorously with 0.6 mL of H2O in a 1.5 mL air-tight vial. The vapor collected (8 μl) from the head space of the solution was injected in a GC with an MXTR-1 column. The data were compared with a reference standard of 1-MCP.
GC analysis of dihexyl-(2-methylene-cyclopropyl)-borane (2): 291 mg of the complex was mixed vigorously with 1.0 mL of H2O in a 3 mL air-tight vial. The vapor collected (100 μL) from the head space of the solution was injected in a GC with an MXTR-1 column. The data were compared with a reference standard of 1-MCP.
GC analysis of tris-(2-methylene-cyclopropyl)-borane (3): 94 mg of the complex was mixed vigorously with 0.4 mL of H2O in a 1.5 mL air-tight vial. The vapor collected (8 μL) from the head space of the solution was injected in a GC with an MXTR-1 column. The data were compared with a reference standard of 1-MCP.
GC analysis of diphenyl-(2-methylene-cyclopropyl)-borane (4): 393 mg of the complex was mixed vigorously with 2.0 mL of H2O in a 3 mL air-tight vial. The vapor collected from the head space of the solution was injected in a Hewlett-Packard 5890 GC with capillary column (30 m×0.25 mm i.d.) coated with a 0.25 μm film of 5% phenyl methyl silicon and a flame ionization detector. The temperature of GC was programmed at 30° C. isothermal with an injection point temperature of 50° C. The detector was operated at 230° C. and sample was injected under split less condition. Helium was used as carrier gas with a 1.5 mL/min column flow.
However, during this analysis it was observed that some other compounds were also released. Those compounds formed due to the breakage of other B-C bonds were cyclohexane and cyclohexanol from complex 1 or hexane and hexanol from complex 2. Complex 3 also released some byproducts either by incomplete hydrolysis of the complex or Markovnikov addition of H2O.

The nature of data set [2]: 1-MCP concentration inside the jars by GC analysis after 24 hour treatment. In kind it is physicochemical. Conditions: 1-gal airtight jars, equivalent amount of complex, 2 mL water. The protocol: (§1) Boron complex 1 was tested on green tomatoes. Six 3.9 L air tight glass jars were taken for investigation containing five green tomatoes each. The tomatoes in three jars were treated with 1-MCP released from the reaction between Boron complex 1 and water in a 14 mL vial with continuous stirring, which was placed inside the jars. The other jars were kept in identical condition without placing any boron complex inside. The treatment was carried out for 24 hours. The concentration level of 1-MCP was determined (9 to 13 μLL^-1) after 24 hours of reaction by GC analysis using 2-methyl-1-propene as a standard. After 24 hours treatment all the tomatoes were kept in open environment and monitored for their color changes.
(§2) For the comparative studies between DCMB (1) and DPMB (4), experiment was performed with three 1-gal airtight jars containing eight tomatoes each which were collected from the same source but different time. One jar was used as blank containing no complex and the other two jars Were treated with equivalent amount of DCMB (1) (393 mg) and DPMB (4) (376.5 mg) complex respectively arid water (2 mL), The concentration of released 1-MCP inside the jars was calculated by GC analysis after 24 hour treatment The treated and untreated tomatoes were subjected to quality analysis under identical conditions.

The subject of the next data set is tomatoes. As to the kind of experiment: Comparative quality analysis of tomatoes treated with DCMB (1) and DPMB (4). Format: in vivo. The settings on record: for darkness (L*) of tomatoes during storage / redness (a*/b*) of tomatoes during storage: 7 days storage at 22±2° C.; for darkness (L*) of tomatoes during storage: FIG. 14; for redness (a*/b*) of tomatoes during storage: FIG. 15; for average firmness of tomatoes: day 7, storage at 22±2° C., FIG. 16. The protocol:
as §2
Quality Analysis: Noninoculated tomatoes were treated with Boron complex 1 as described before and kept in open air for 9 days. Quality analysis (color and firmness) was performed at 22±2° C. Color was measured with a Hunter UltraScan® VIS colorimeter (Hunter Associates Lab, Reston, Va.) and firmness was evaluated with a TA-XT2i Texture Analyzer (Texture Technologies Corp., Scarsdale, N.Y.). Four measurements were taken for each tomato for color and firmness. The color of the tomatoes was measured seven times during the investigation period and firmness was determined at the end of 9th day.
Similar results were found in a*/b* value (FIG. 15). […] The firmness data of the treated tomatoes was compared to that of non-treated tomatoes at Day 7 (NT-7D, Exp 2) and also at Day 0 (NT-OD, Exp 2), which were collected from the same batch. […] However, a significant difference was observed between the non-treated tomatoes at day 7 (2.68 kg) and non-treated fruits at day 0.

In another data set the test system is green tomatoes. Put plainly: Green tomatoes treated with 1-MCP released from Boron complex 1 and water; color and firmness quality analysis. In kind it is in vivo. The protocol: as §1, with “changes. Quality Analysis: Noninoculated tomatoes were treated with Boron complex 1 as described before and kept in open air for 9 days. Quality analysis (color and firmness) was performed at 22±2° C. Color was measured with a Hunter UltraScan® VIS colorimeter (Hunter Associates Lab, Reston, Va.) and firmness was evaluated with a TA-XT2i Texture Analyzer (Texture Technologies Corp., Scarsdale, N.Y.). Four measurements were taken for each tomato for color and firmness. The color of the tomatoes was measured seven times during the investigation period and firmness was determined at the end of 9th day.” for “changes.”

Consider `C=C1CC1B(C1CCCCC1)C1CCCCC1` (centres unmarked) [complex 1, dicyclohexyl-(2-methylene-cyclopropyl)-borane], for which, in data set [1], the “amount of 1-MCP released in first 24 hours (releasing curves)” value is on record as “near to its highest point in first 24 hours”, the “consistency in releasing 1-MCP over time” value is given as “more consistent in releasing 1-MCP over time” and the “release of 1-MCP with time (MCP releasing curve)” value (shortened to “release of 1-MCP with time”) is “released gradually with time”. For the same molecule, the “area ratio of released 1-MCP over cyclohexane vs. temperature” value in data set [1] (GC experiment at different temperatures, FIG. 8) is “increased at lower temperature”. Moreover, the “concentration of 1-MCP” value in data set [2] worked out at 5 μLL-1. Further, in the data set with tomatoes, the “darkness (L*) of tomatoes during storage” value is “did not significantly change”, the “redness (a*/b*) of tomatoes during storage” value (“redness (a*/b*)” for short) is recorded as “did not change significantly or increased very slowly” and the “average firmness of tomatoes” value is 4.20 kg. Also, the “tomato color at the end of nine days” value in the data set on green tomatoes (24 hours treatment, then open environment, all untreated turned red) is given as “half of the treated tomatoes were still green”. In the data set on green tomatoes (24 hours treatment, then open environment, untreated turned yellow), the “tomato color after 4 days” value is listed as “remained green”. Moreover, in the data set with green tomatoes (9 days storage at 22±2° C., FIG. 10), the “darkness (L*) of tomatoes during storage” value is “did not significantly change”. Also, the “redness (a*/b*)” value in the data set on green tomatoes (9 days storage at 22±2° C., FIG. 11) is given as “increased slowly but not in significant value”. The firmness of tomatoes in the data set on green tomatoes (end of 9th day, storage at 22±2° C., FIG. 12) was 1.42 (±0.35) kg. For the same molecule, the “foreign spots on the surface of the treated tomatoes” value in the data set on green tomatoes (in vivo) was “No foreign spots were observed”.
In the case of `C=C1CC1B(c1ccccc1)c1ccccc1` (centres unmarked) [complex 4, diphenyl-(2-methylene-cyclopropyl)-borane], in data set [1], the “amount of 1-MCP released in first 24 hours (releasing curves)” value was “relatively low in first 24 hours” and the “release of 1-MCP with time” value was “released gradually with time”. The “concentration of 1-MCP” value in data set [2] worked out at 1 μLL-1. Moreover, in the data set on tomatoes, the “darkness (L*) of tomatoes during storage” value is recorded as “remained in the middle”, the “redness (a*/b*)” value is on record as “slower increase than the non-treated tomatoes” and the “average firmness of tomatoes” value is 3.10 kg.
As for `C=C1CC1B(CCCCCC)CCCCCC` (centres unmarked) [complex 2, dihexyl-(2-methylene-cyclopropyl)-borane], the “release of 1-MCP with time” value in data set [1] is recorded as “released gradually with time”.
For `C=C1CC1B(C1CC1=C)C1CC1=C` (centres unmarked) [complex 3, tris-(2-methylene-cyclopropyl)-borane], in data set [1], the “consistency in releasing 1-MCP over time” value is “more consistent in releasing 1-MCP over time” and the “release of 1-MCP with time” value was “released gradually with time”.

Values taken from patent US9622479B2, “Boron complexes with gradual 1-methylcyclopropene releasing capability” (The United States of America, as represented by the …, priority 2014, dated 2017).
